Reference: patent US20230331690A1, “THC DERIVATIVES, ORAL DOSAGE FORMS COMPRISING SAME, USES THEREOF FOR TREATING DISEASES AND DISORDERS AND SYNTHESIS THEREOF” (BAR-ILAN UNIVERSITY, priority 2020, published 2023)
Several values for one entry are separate records, joined by “and”; a condition that tells them apart may be missing. Equal entries are not always repeated. Where two headings read alike, the source gives them in different places.

How the values were obtained:
[1] = Body temperature by rectal thermometer (hypothermia)
mice = experiment: Hot plate assay, withdrawal reflex latency (WRL); assay type: in vivo; settings: for Hot plate Time: per animal
[2] = Pharmacokinetics, blood samples (Example 17); settings: mouse, blood, ip, Component in the blood, label = analyte
Method: The pharmacokinetics of 9-CD3-(8-D2)-THC compared to natural THC was evaluated using both intraperitoneal i.p. injection and an oral gavage administration for each material. The mice were divided into four groups containing 6 mice (24 mice total). For each group of mice, a blood sample was withdrawn at baseline (t=0), and half-hour intervals (t=0.5, 2 and 5 h) after administration of the drug. Three mice, half of each group, were euthanized with CO2 after 5 h and their organs (brain and liver) were collected. From the second half of each group, another blood sample was withdrawn 24 h after administration, and then these animals were euthanized and the brain and liver were collected for analysis.

[3] = Persistence over time, liver samples postmortem (Example 18); assay type: in vivo, mice; settings: for concentration at 6 h / concentration at 24 h: mouse, liver, oral, read-out: Average results for 3 mice (Table 13, liver); for concentration at 6 h: died at 6 h
Method: (§1) Blood samples from each mouse were collected at each time point for the pharmacokinetics tests. For 6 h after administrating of all tested drugs, and after testing their WRL on the hot plate, half the mice (n=3) of each group were sacrificed, and the liver and brain of each animal were taken for pharmacokinetics tests. From the remaining mice, blood samples were acquired at 12 h after administration for pharmacokinetics tests. At 24 h after drug administration, and after checking the WRL again, second half of each group of mice were sacrificed, and the liver and brain of each animal were taken for pharmacokinetics tests.
(§2) All the results of the brain and liver samples, which were taken postmortem 6 h or 24 h after administration (n=3) are summarized in Tables 12-13.

[4] = Persistence over time, blood samples (Example 18); assay type: in vivo, mice; settings: label = analyte; for Average results, blood samples: 4 mg/kg administration
Method: as §1

[5] = Persistence over time, brain samples postmortem (Example 18); assay type: in vivo, mice
Method: as §1, §2

[6] = Pharmacokinetics, liver samples (Example 17); assay type: in vivo, mice; settings: mouse, liver; for concentration at 24 h: ip; for concentration at 5 h: po

## CCCCCc1cc(O)c2c(c1)OC(C)(C)[C@@H]1CCC(C)=C[C@@H]21 [THC, Δ-9-tetrahydrocannabinol]
[1]; high concentration of 8 mg/kg oral
  time of strongest effect on body temperature after drug administration: 0.5 h
[1]; medium concentration of 4 mg/kg oral
  hypothermia effect (body temperature): very clear hypothermia effect
[1]; mice, avg. of 6 mice, 8 mg/kg (groups C+D), t = 0.5 h after administration
  Body temperature, Avg. change compared to t = 0, at t = 0.5 h: −2.1 °C
mice; 2 mg/Kg oral, t = 0.5 h
  Hot plate Avg. 6 mice: 7.38 s
  Hot plate Time: 5.7 s and 11.5 s and 8.9 s and 9.2 s and 3.2 s and 5.8 s
mice; 2 mg/Kg oral, t = 3 h
  Hot plate Avg. 6 mice: 9.77 s
  Hot plate Time: 9.5 s and 8.5 s and 18.0 s and 10.4 s and 5.3 s and 6.9 s
mice; 2 mg/Kg oral, t = 6 h
  Hot plate Avg. 6 mice: 9.77 s
  Hot plate Time: 13.5 s and 6.3 s and 12.5 s and 8.7 s and 6.6 s and 11.0 s
mice; 2 mg/Kg oral, t = 24 h
  Hot plate Avg. 3 mice: 6.53 s
  Hot plate Time: 7.8 s and 7.4 s and 4.4 s
mice; 2 mg/kg, 0.5 h
  decrease in the WRL compared to baseline: 1%
mice; 2 mg/kg, 3 h
  change in average WRL compared to baseline: +31%
mice; 2 mg/kg, 6 h
  change in average WRL compared to baseline: +31%
mice; 4 mg/Kg oral, t = 0.5 h
  Hot plate Avg. 6 mice: 12.48 s
  Hot plate Time: 11.3 sec. (2×) and 19.8 sec. and 6.3 sec. and 14.0 sec. and 12.2 sec.
mice; 4 mg/Kg oral, t = 3 h
  Hot plate Avg. 6 mice: 11.00 s
  Hot plate Time: 17.3 s and 8.0 s and 9.3 s and 6.9 s and 13.9 s and 10.6 s
mice; 4 mg/Kg oral, t = 6 h
  Hot plate Avg. 6 mice: 8.92 s
  Hot plate Time: 12.1 sec. and 2.4 sec. and 3.0 sec. and 14.0 sec. (2×) and 8.0 sec.
mice; 4 mg/Kg oral, t = 24 h
  Hot plate Avg. 3 mice: 10.43 s
  Hot plate Time: 13.7 s and 12.8 s and 4.8 s
mice; 4 mg/kg, 0.5 h
  increase in the WRL compared to baseline: 23%
mice; 4 mg/kg, 3 h
  change in average WRL compared to baseline: +8%
mice; 4 mg/kg, 6 h
  change in average WRL compared to baseline: −12%
mice; 8 mg/Kg oral, t = 0.5 h
  Hot plate Avg. 6 mice: 13.22 s
mice; 8 mg/Kg oral, t = 0.5 h, cut-off 30 s
  Hot plate Time: 15.2 s and 11.1 s and 14.2 s and 6.7 s and 19.6 s and 12.5 s
mice; 8 mg/Kg oral, t = 3 h
  Hot plate Avg. 6 mice: 12.45 s
mice; 8 mg/Kg oral, t = 3 h, cut-off 30 s
  Hot plate Time: 21.6 s and 9.0 s and 9.8 s and 9.5 s and 12.5 s and 12.3 s
mice; 8 mg/Kg oral, t = 6 h
  Hot plate Avg. 6 mice: 12.03 s
  Hot plate Time: 13.2 s and 9.2 s and 6.8 s and 16.7 s and 17.0 s and 9.3 s
mice; 8 mg/Kg oral, t = 24 h
  Hot plate Avg. 3 mice: 10.27 s
mice; 8 mg/Kg oral, t = 24 h, cut-off 30 s
  Hot plate Time: 8.1 s and 15.7 s and 7.0 s
mice; 8 mg/kg, 0.5 h
  average increase in WRL compared to baseline (t=0): 67.3%
mice; 8 mg/kg, 3 h
  change in average WRL compared to t=0 at baseline: +57.5%
mice; 8 mg/kg, 6 h
  change in average WRL compared to baseline: +52%
[2]; Average, 0.5 h after i.p. injection of THC or THC-d5, n=6 (THC-d5 n=5)
  concentration at 0.5 h: 63.4 ng/mL
[2]; mouse 1, 0.5 h after i.p. injection of THC or THC-d5
  concentration at 0.5 h: 76.8 ng/mL
[2]; mouse 2, 0.5 h after i.p. injection of THC or THC-d5
  concentration at 0.5 h: 81.9 ng/mL
[2]; mouse 3, 0.5 h after i.p. injection of THC or THC-d5
  concentration at 0.5 h: 49.5 ng/mL
[2]; mouse 4, 0.5 h after i.p. injection of THC or THC-d5
  concentration at 0.5 h: 64.4 ng/mL
[2]; mouse 5, 0.5 h after i.p. injection of THC or THC-d5
  concentration at 0.5 h: 53.8 ng/mL
[2]; mouse 6, 0.5 h after i.p. injection of THC or THC-d5
  concentration at 0.5 h: 53.9 ng/mL
[3]; 2 mg/kg administered, died at 24 h, number in brackets = mice with a value
  Average results for 3 mice (Table 13, liver): 0.74 (2/3) ng/g
[3]; 2 mg/kg administered
  concentration at 6 h: 9.18 ng/g
[3]; 4 mg/kg administered
  concentration at 6 h: 11.4 ng/g
[3]; 4 mg/kg administered, died at 24 h, number in brackets = mice with a value
  concentration at 24 h: 0.87 ng/g
[3]; 8 mg/kg administered
  concentration at 6 h: 11.1 ng/g
[3]; 8 mg/kg administered, died at 24 h, number in brackets = mice with a value
  concentration at 24 h: 3.52 ng/g
[4]; Time 3 h
  Average results, blood samples: 2.78 (4/6) ng/mL
[4]; Time 6 h
  Average results, blood samples: 2.44 (5/5) ng/mL
[4]; Time 24 h (3 mice)
  Average results, blood samples: 0.25 (2/2) ng/mL
[4]; mouse, blood, oral, 4 mg/kg administration of THC or THC-d5, Time 0.5 h
  concentration at 0.5 h: 10.5 ng/mL
[4]; mouse, blood, oral, 8 mg/kg administration of THC or THC-d5, Time 0.5 h
  concentration at 0.5 h: 14.3 ng/mL
[4]; mouse, blood, oral, 8 mg/kg administration, Time 3 h
  concentration at 3 h: 6.53 ng/mL
[4]; mouse, blood, oral, 8 mg/kg administration, Time 6 h
  concentration at 6 h: 4.14 ng/mL
[4]; mouse, blood, oral, 8 mg/kg administration, Time 12 h (3 mice)
  concentration at 12 h: 0.81 ng/mL
[4]; mouse, blood, oral, 8 mg/kg administration, Time 24 h (3 mice)
  concentration at 24 h: 0.26 ng/mL
[5]; 24 h after administration, highest concentration of 8 mg/kg
  presence in the brain: absent
[5]; mouse, brain, oral, 4 mg/kg administered, died at 24 h, number in brackets = mice with a value, read-out: Average results for 3 mice - brain samples
  concentration at 24 h: 14.1 ng/g
[5]; mouse, brain, oral, 8 mg/kg administered, died at 6 h, number in brackets = mice with a value, read-out: Average results for 3 mice - brain samples
  concentration at 6 h: 16.9 ng/g
[6]; 24 h after i.p. administration, n=3, read-out: average liver concentration
  concentration at 24 h: 7.62 ng/g
[6]; 24 h after i.p. injection of THC or THC-d5, label = analyte, n=3, read-out: Component in the liver, Average
  concentration at 24 h: 7.62 ng/mL
[6]; 24 h after i.p. injection of THC or THC-d5, label = analyte, read-out: Component in the liver, mouse 1
  concentration at 24 h: 5.55 ng/mL
[6]; 24 h after i.p. injection of THC or THC-d5, label = analyte, read-out: Component in the liver, mouse 2
  concentration at 24 h: 8.46 ng/mL
[6]; 24 h after i.p. injection of THC or THC-d5, label = analyte, read-out: Component in the liver, mouse 3
  concentration at 24 h: 8.86 ng/mL
[6]; 5 h after oral gavage administration of THC or THC-d5, label = analyte, n=3, read-out: Component in the liver, Average
  concentration at 5 h: 3.77 ng/mL
[6]; 5 h after oral gavage administration of THC or THC-d5, label = analyte, read-out: Component in the liver, mouse 1
  concentration at 5 h: 1.41 ng/mL
[6]; 5 h after oral gavage administration of THC or THC-d5, label = analyte, read-out: Component in the liver, mouse 2
  concentration at 5 h: 4.94 ng/mL
[6]; 5 h after oral gavage administration of THC or THC-d5, label = analyte, read-out: Component in the liver, mouse 3
  concentration at 5 h: 4.97 ng/mL
[6]; 5 h after oral gavage administration, n=3, read-out: average liver concentration
  concentration at 5 h: 3.77 ng/g
